Test system: angioedema in CSU patients
Assay: Phase 2 CSU study: angioedema activity score over 7 days (AAS7)
Assay type: in vivo, human
Parameters: AAS7, Median / AAS7 Change from baseline, Median: scale not given here
Conditions: Omalizumab-Naïve Population
Excerpt: The study comprises a 12 week, randomized, double-blind, placebo-controlled, multi-center, dose-ranging efficacy and safety phase, followed by a 40 week open label extension (OLE) phase (see FIG. 1). The study consists of three phases and an optional OLE phase. […] The weekly angioedema activity score (AAS7) was proposed as a tertiary endpoint. […] Patients were to complete the AAS using the e-diary. The e-diary was to be used once daily on the same time of each day recording of participant's answers to the angioedema activity score over 7 days (AAS7) questionnaire.

CC(C)(C=C(C#N)C(=O)N1CCC[C@@H](n2nc(-c3ccc(Oc4ccccc4)cc3F)c3c(N)ncnc32)C1)N1CCN(C2COC2)CC1 [rilzabrutinib, (R)-2-[3-[4-amino-3-(2-fluoro-4-phenoxy-phenyl)pyrazolo[3,4-d]pyrimidin-1-yl]piperidine-1-carbonyl]-4-methyl-4-[4-(oxetan-3-yl)piperazin-1-yl]pent-2-enenitrile]
AAS7, Median (400 mg BID, Week 10): 0.00
AAS7 Change from baseline, Mean (SD) (400 mg BID, Week 10): −29.84 (25.74)
AAS7 Change from baseline, Median (400 mg BID, Week 10): −24.00
AAS7 Percent change from baseline, Mean (SD) (400 mg BID, Week 10): −45.78 (130.13) %
AAS7 Percent change from baseline, Median (400 mg BID, Week 10): −100.00%
AAS7, Median (400 mg BID, Week 11): 0.00
AAS7 Change from baseline, Mean (SD) (400 mg BID, Week 11): −35.05 (24.68)
AAS7 Change from baseline, Median (400 mg BID, Week 11): −29.17
AAS7 Percent change from baseline, Mean (SD) (400 mg BID, Week 11): −73.13 (48.67) %
AAS7 Percent change from baseline, Median (400 mg BID, Week 11): −100.00%
AAS7, Median (400 mg BID, Week 12): 0.00
AAS7 Change from baseline, Mean (SD) (400 mg BID, Week 12): −35.73 (26.59)
AAS7 Change from baseline, Median (400 mg BID, Week 12): −37.00
AAS7 Percent change from baseline, Mean (SD) (400 mg BID, Week 12): −76.62 (36.34) %
AAS7 Percent change from baseline, Median (400 mg BID, Week 12): −100.00%
AAS7, Mean (SD) (400 mg QPM, End of Study): 17.46 (29.82)
AAS7, Median (400 mg QPM, End of Study): 4.00
AAS7 Change from baseline, Mean (SD) (400 mg QPM, End of Study): −4.04 (35.07)
AAS7 Change from baseline, Median (400 mg QPM, End of Study): −8.50
AAS7 Percent change from baseline, Mean (SD) (400 mg QPM, End of Study): −14.64 (160.23) %
AAS7 Percent change from baseline, Median (400 mg QPM, End of Study): −92.00%
AAS7, Median (400 mg QPM, Week 1): 39.00
AAS7 Change from baseline, Mean (SD) (400 mg QPM, Week 1): −18.63 (22.01)
AAS7 Change from baseline, Median (400 mg QPM, Week 1): −19.00
AAS7 Percent change from baseline, Mean (SD) (400 mg QPM, Week 1): −30.81 (44.93) %
AAS7 Percent change from baseline, Median (400 mg QPM, Week 1): −35.35%
AAS7, Median (400 mg QPM, Week 2): 31.50
AAS7 Change from baseline, Mean (SD) (400 mg QPM, Week 2): −20.23 (24.12)
AAS7 Change from baseline, Median (400 mg QPM, Week 2): −11.00
AAS7 Percent change from baseline, Mean (SD) (400 mg QPM, Week 2): −36.22 (43.96) %
AAS7 Percent change from baseline, Median (400 mg QPM, Week 2): −31.31%
AAS7, Median (400 mg QPM, Week 3): 34.00
AAS7 Change from baseline, Mean (SD) (400 mg QPM, Week 3): −20.88 (26.24)
AAS7 Change from baseline, Median (400 mg QPM, Week 3): −13.00
AAS7 Percent change from baseline, Mean (SD) (400 mg QPM, Week 3): −29.46 (63.83) %
AAS7 Percent change from baseline, Median (400 mg QPM, Week 3): −26.00%
AAS7, Median (400 mg QPM, Week 4): 35.00
AAS7 Change from baseline, Mean (SD) (400 mg QPM, Week 4): −23.93 (24.26)
AAS7 Change from baseline, Median (400 mg QPM, Week 4): −17.00
AAS7 Percent change from baseline, Mean (SD) (400 mg QPM, Week 4): −46.35 (39.61) %
AAS7 Percent change from baseline, Median (400 mg QPM, Week 4): −46.27%
AAS7, Median (400 mg QPM, Week 5): 23.50
AAS7 Change from baseline, Mean (SD) (400 mg QPM, Week 5): −29.64 (28.55)
AAS7 Change from baseline, Median (400 mg QPM, Week 5): −17.00
AAS7 Percent change from baseline, Mean (SD) (400 mg QPM, Week 5): −55.69 (41.16) %
AAS7 Percent change from baseline, Median (400 mg QPM, Week 5): −59.46%
AAS7, Median (400 mg QPM, Week 6): 24.38
AAS7 Change from baseline, Mean (SD) (400 mg QPM, Week 6): −28.36 (28.62)
AAS7 Change from baseline, Median (400 mg QPM, Week 6): −23.63
AAS7 Percent change from baseline, Mean (SD) (400 mg QPM, Week 6): −47.92 (45.31) %
AAS7 Percent change from baseline, Median (400 mg QPM, Week 6): −55.14%
AAS7, Median (400 mg QPM, Week 7): 30.00
AAS7 Change from baseline, Mean (SD) (400 mg QPM, Week 7): −26.95 (30.21)
AAS7 Change from baseline, Median (400 mg QPM, Week 7): −28.00
AAS7 Percent change from baseline, Mean (SD) (400 mg QPM, Week 7): −33.18 (69.78) %
AAS7 Percent change from baseline, Median (400 mg QPM, Week 7): −50.00%
AAS7, Median (400 mg QPM, Week 8): 18.00
AAS7 Change from baseline, Mean (SD) (400 mg QPM, Week 8): −29.80 (30.38)
AAS7 Change from baseline, Median (400 mg QPM, Week 8): −28.00
AAS7 Percent change from baseline, Mean (SD) (400 mg QPM, Week 8): −49.05 (70.23) %
AAS7 Percent change from baseline, Median (400 mg QPM, Week 8): −66.00%
AAS7, Median (400 mg QPM, Week 9): 26.30
AAS7 Change from baseline, Mean (SD) (400 mg QPM, Week 9): −28.66 (27.25)
AAS7 Change from baseline, Median (400 mg QPM, Week 9): −29.00
AAS7 Percent change from baseline, Mean (SD) (400 mg QPM, Week 9): −46.39 (66.49) %
AAS7 Percent change from baseline, Median (400 mg QPM, Week 9): −56.26%
AAS7, Median (400 mg QPM, Week 10): 28.00
AAS7 Change from baseline, Mean (SD) (400 mg QPM, Week 10): −28.93 (28.14)
AAS7 Change from baseline, Median (400 mg QPM, Week 10): −28.92
AAS7 Percent change from baseline, Mean (SD) (400 mg QPM, Week 10): −46.90 (68.16) %
AAS7 Percent change from baseline, Median (400 mg QPM, Week 10): −50.17%
AAS7, Median (400 mg QPM, Week 11): 30.10
AAS7 Change from baseline, Mean (SD) (400 mg QPM, Week 11): −29.18 (28.09)
AAS7 Change from baseline, Median (400 mg QPM, Week 11): −32.40
AAS7 Percent change from baseline, Mean (SD) (400 mg QPM, Week 11): −47.96 (69.01) %
AAS7 Percent change from baseline, Median (400 mg QPM, Week 11): −52.90%
AAS7, Median (400 mg QPM, Week 12): 26.83
AAS7 Change from baseline, Mean (SD) (400 mg QPM, Week 12): −29.03 (28.74)
AAS7 Change from baseline, Median (400 mg QPM, Week 12): −28.00
AAS7 Percent change from baseline, Mean (SD) (400 mg QPM, Week 12): −48.34 (71.54) %
AAS7 Percent change from baseline, Median (400 mg QPM, Week 12): −59.34%
AAS7, Mean (SD) (400 mg TID, End of Study): 26.75 (33.68)
AAS7, Median (400 mg TID, End of Study): 16.00
AAS7 Change from baseline, Mean (SD) (400 mg TID, End of Study): −21.25 (14.29)
AAS7 Change from baseline, Median (400 mg TID, End of Study): −27.00
AAS7 Percent change from baseline, Mean (SD) (400 mg TID, End of Study): −58.11 (43.26) %
AAS7 Percent change from baseline, Median (400 mg TID, End of Study): −66.21%
AAS7, Median (400 mg TID, Week 1): 9.00
AAS7 Change from baseline, Mean (SD) (400 mg TID, Week 1): −28.96 (27.34)
AAS7 Change from baseline, Median (400 mg TID, Week 1): −26.00
AAS7 Percent change from baseline, Mean (SD) (400 mg TID, Week 1): −56.39 (51.49) %
AAS7 Percent change from baseline, Median (400 mg TID, Week 1): −89.41%
AAS7, Median (400 mg TID, Week 2): 9.33
AAS7 Change from baseline, Mean (SD) (400 mg TID, Week 2): −30.89 (28.32)
AAS7 Change from baseline, Median (400 mg TID, Week 2): −27.00
AAS7 Percent change from baseline, Mean (SD) (400 mg TID, Week 2): −58.84 (53.09) %
AAS7 Percent change from baseline, Median (400 mg TID, Week 2): −81.97%
AAS7, Median (400 mg TID, Week 3): 0.00
AAS7 Change from baseline, Mean (SD) (400 mg TID, Week 3): −33.83 (29.99)
AAS7 Change from baseline, Median (400 mg TID, Week 3): −27.00
AAS7 Percent change from baseline, Mean (SD) (400 mg TID, Week 3): −69.93 (48.65) %
AAS7 Percent change from baseline, Median (400 mg TID, Week 3): −100.00%
AAS7, Median (400 mg TID, Week 4): 5.00
AAS7 Change from baseline, Mean (SD) (400 mg TID, Week 4): −36.18 (24.55)
AAS7 Change from baseline, Median (400 mg TID, Week 4): −27.00
AAS7 Percent change from baseline, Mean (SD) (400 mg TID, Week 4): −76.56 (30.09) %
AAS7 Percent change from baseline, Median (400 mg TID, Week 4): −93.33%
AAS7, Median (400 mg TID, Week 5): 6.00
AAS7 Change from baseline, Mean (SD) (400 mg TID, Week 5): −37.08 (26.17)
AAS7 Change from baseline, Median (400 mg TID, Week 5): −30.00
AAS7 Percent change from baseline, Mean (SD) (400 mg TID, Week 5): −73.55 (35.00) %
AAS7 Percent change from baseline, Median (400 mg TID, Week 5): −88.24%
AAS7, Median (400 mg TID, Week 6): 0.00
AAS7 Change from baseline, Mean (SD) (400 mg TID, Week 6): −32.35 (30.51)
AAS7 Change from baseline, Median (400 mg TID, Week 6): −27.00
AAS7 Percent change from baseline, Mean (SD) (400 mg TID, Week 6): −63.91 (58.28) %
AAS7 Percent change from baseline, Median (400 mg TID, Week 6): −100.00%
AAS7, Median (400 mg TID, Week 7): 2.50
AAS7 Change from baseline, Mean (SD) (400 mg TID, Week 7): −32.23 (26.57)
